Experiment in all cases: inhibition of tumour cell growth, NCI panel, 48 h
In test [1] the test system is CAKI-1.
Test [2] concerns KM12.
The test system of test [3] is K562.
Test [4] has as its system SNB-75.
Test [5] relates to MDA-N.
For test [6], the system named is SR.
Test [7] concerns COLO 205.
The test system of test [8] is MDA-MB-231.
Test [9] has as its system HCT-15.
Test [10] relates to DU-145.
For test [11], the system named is U-251.
The subject of test [12] is HCC 2998.
Test [13] deals with OVCAR-8.
The subject of test [14] is RPMI-8226.
Test [15] concerns SF-295.
Test [16] concerns SK-MEL-28.
Test [17] relates to OVCAR-4.
Test [18] relates to SW-620.
Test [19] deals with SNB-19.
The test system of test [20] is RXF 393.

The structures appear in SMILES notation. Where “and” joins values, the source holds several entries; their conditions need not be identical. Equal values may be shown once.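 Method: 48-hour compound exposure of cells in 96-well plates, five concentrations, linear interpolation of endpoints. GI50 = concentration required for 50% inhibition of growth.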 Calls of active or inactive are those of the source. Rule as the data show it: active = GI50 up to about 1.1 µM and inactive = higher.

Results on twelve molecules are retold here after ChEMBL document CHEMBL1201862, “PubChem BioAssay data set” (2004).

Consider `COc1ccc2c(c1)OCc1c-2oc2ccccc2c1=O`, for which the GI50 in test [1] is > 100 µM (inactive); in [2], > 100 µM (inactive); in test [3] it was > 100 µM (inactive); in test [4] it was 34.5 µM (inactive); in test [5], > 100 µM (inactive); in [6] it was > 100 µM (inactive). Besides, the GI50 in test [7] was > 100 µM (inactive); in test [8], 30.1 µM (inactive); in test [9], above 100 µM; in [10], > 100 µM (inactive); in test [11] it was 35.8 µM (inactive); in test [12], > 100 µM (inactive). Also, the GI50 in test [13] is > 100 µM (inactive); in test [14], > 100 µM (inactive); in test [15], 52.7 µM (inactive).

For `CCCCCC/C=C\CCCCCCCCCc1c(O)c(OC)cc(O)c1CN(C)C`, the GI50 in test [1] is 13.8 µM (inactive); in [16], 13.2 µM (inactive); in test [17], 1.47 µM (inactive); in [2] it was 3.34 µM (inactive); in test [3], 1.73 µM (inactive); in [4] it was 2.79 µM (inactive). For the same molecule, the GI50 is 13 µM (inactive) in [5]; 0.692 µM (active) in test [6]; 1.92 µM (inactive) in test [7]; 14.5 µM (inactive) in test [8]; 3.01 µM in [9]; 2.93 µM (inactive) in test [18]. Besides, the GI50 in test [10] is 17.9 µM (inactive); in test [11] it was 3.73 µM (inactive); in [13] it was 4.06 µM (inactive); in test [19], 12.9 µM (inactive); in test [14] it was 2.44 µM (inactive); in test [15], 5.38 µM (inactive).

As to `O=S(=O)(O)c1cc(O)c2c(O)c(/N=N/c3cccc4ccccc34)c(S(=O)(=O)O)cc2c1`, the GI50 in test [1], in test [16], in test [17], in test [2], in [3] and in test [4] was > 100 µM (inactive) throughout. For the same molecule, the GI50 in test [5] was > 100 µM (inactive); in test [6], > 100 µM (inactive); in test [7], > 100 µM (inactive); in test [8], > 100 µM (inactive); in test [9], above 100 µM; in test [18] it was > 100 µM (inactive). The GI50 in test [10], in [11], in [13], in [19], in test [20] and in test [14] was > 100 µM (inactive) throughout. The GI50 in test [15] was > 100 µM (inactive).

Turning to `Nc1ccccc1C#CC(=O)c1cccc(C(F)(F)F)c1`, the GI50 in test [1] was 3.21 µM (inactive); in test [17], 2.22 µM (inactive); in [2], 13.9 µM (inactive); in [3], 3.01 µM (inactive); in [4], 14.1 µM (inactive); in test [5], 3.1 µM (inactive). Further, the GI50 in test [6] is 2.27 µM (inactive); in test [7], 1.89 µM (inactive); in test [8], 1.95 µM (inactive); in test [18], 2.21 µM (inactive); in [10] it was 3.24 µM (inactive); in test [11], 1.95 µM (inactive). The GI50 is 14.5 µM (inactive) in test [19], 2.25 µM (inactive) in test [20], 2.3 µM (inactive) in test [14] and 15.7 µM (inactive) in test [15].

For the molecule `COc1ccc(/C(C)=N/NC(=S)N(C)C)c(O)c1`, the GI50 in test [1] was 4.92 µM (inactive); in test [16], 16.6 µM (inactive); in test [17], 2.32 µM (inactive); in test [2], 4.92 µM (inactive); in [4], 43.8 µM (inactive); in test [5], 16 µM (inactive). Besides, the GI50 in test [6] was 36.3 µM (inactive); in test [7], 2.59 µM (inactive); in test [8], 5.96 µM (inactive); in test [18], 5.28 µM (inactive); in test [10] it was 11.5 µM (inactive); in [11] it was 7.83 µM (inactive). For the same molecule, the GI50 in test [12] was 24.6 µM (inactive); in test [19], 22 µM (inactive); in [14], 7.74 µM (inactive); in test [15], 4.05 µM (inactive).

For the molecule `CN(C)c1ccc(C(N)=O)cn1`, the GI50 in test [16], in test [2], in [3], in test [4], in [5] and in test [6] was > 100 µM (inactive) each time. In addition, the GI50 in test [7] was > 100 µM (inactive); in test [8], > 100 µM (inactive); in test [9], above 100 µM; in [18], > 100 µM (inactive); in test [10] it was > 100 µM (inactive); in [11] it was > 100 µM (inactive). Moreover, the GI50 in test [12], in [13], in [19], in [20], in test [14] and in test [15] was > 100 µM (inactive) throughout.

`Nc1ncnc2c1ncn2C1OC(CO)C(O)C1N` (configuration not stated): the GI50 in test [1], in test [16], in [17], in [2], in test [3] and in [4] was > 100 µM (inactive) in each case. Moreover, the GI50 is > 100 µM (inactive) in test [5]; > 100 µM (inactive) in [6]; > 100 µM (inactive) in test [7]; > 100 µM (inactive) in [8]; above 100 µM in test [9]; > 100 µM (inactive) in [18]. For the same molecule, the GI50 in test [10], in test [11], in [13], in test [19], in test [20] and in [14] was > 100 µM (inactive) throughout. Moreover, the GI50 in [15] is > 100 µM (inactive).

Take `N=C(N)N/N=C/c1nc2n(c1[N+](=O)[O-])CCS2`: the GI50 in test [1] is > 100 µM (inactive); in test [16], 43.7 µM (inactive); in [17], 16.2 µM (inactive); in test [2], 25 µM (inactive); in test [4] it was 23.9 µM (inactive); in test [5] it was 32.1 µM (inactive). In addition, the GI50 was 14.5 µM (inactive) in test [6]; 14 µM (inactive) in test [7]; 29 µM (inactive) in [8]; 65.3 µM in [9]; 28.4 µM (inactive) in [18]; 27.3 µM (inactive) in [10]. Further, the GI50 in [11] is 15.7 µM (inactive); in test [13], 15.7 µM (inactive); in [19], 27.5 µM (inactive); in test [20], 20.8 µM (inactive); in [14], 52 µM (inactive); in test [15], 26.4 µM (inactive).

With `COc1ccc(-c2nc(SC)n(C3OC(COC(C)=O)C(OC(C)=O)C(OC(C)=O)C3OC(C)=O)c(=O)c2C#N)cc1` (configuration not stated), the GI50 is > 100 µM (inactive) in [1]; > 100 µM (inactive) and 72.1 µM (inactive) in test [16]; > 100 µM (inactive) in test [2]; > 100 µM (inactive) in test [3]; > 100 µM (inactive) in [5]; > 100 µM (inactive) in [6]. Besides, the GI50 in test [7] was > 100 µM (inactive); in test [8], > 100 µM (inactive); in test [9], above 100 µM; in [18], > 100 µM (inactive); in test [10], > 100 µM (inactive); in test [11] it was 34.7 µM (inactive) and 39.5 µM (inactive). In addition, the GI50 was > 100 µM (inactive) in test [12] and 79.3 µM (inactive) in test [13].

Regarding `Cc1ccc(CC2(OCCN(C)C)CCC(C(C)(C)C)CC2)cc1` (configuration not stated), the GI50 in test [1] is 4.99 µM (inactive); in test [16], 1.88 µM (inactive); in [17] it was 4.16 µM (inactive); in test [2] it was 3.62 µM (inactive); in test [3], 1.71 µM (inactive); in test [4], 6.81 µM (inactive). Besides, the GI50 in test [5] is 2.53 µM (inactive); in [6], 2.04 µM (inactive); in test [7] it was 2.05 µM (inactive); in test [8], 6.01 µM (inactive); in test [9], 3.86 µM; in [18] it was 2.25 µM (inactive). In addition, the GI50 in [10] is 3.78 µM (inactive); in test [11], 2.34 µM (inactive); in test [12], 1.98 µM (inactive); in test [13], 4.62 µM (inactive); in test [19] it was 4.39 µM (inactive); in test [14] it was 1.84 µM (inactive). In test [15], the GI50 is 5.22 µM (inactive).

Consider `CC1(C)CCN2C(=O)C34CCCC3CC21S4` (configuration not stated), for which the GI50 in [1], in test [16], in [17], in test [2], in test [3] and in test [5] was > 100 µM (inactive) each time. For the same molecule, the GI50 in [6] was > 100 µM (inactive); in [7], > 100 µM (inactive); in test [8], > 100 µM (inactive); in test [9], above 100 µM; in [18], > 100 µM (inactive); in [10] it was > 100 µM (inactive). In addition, the GI50 in [11], in [13], in test [19], in test [20], in test [14] and in [15] was > 100 µM (inactive) each time.

As for `Nc1ccc(Nc2cc(=O)[nH]c(=O)[nH]2)cc1Cl`, the GI50 in [1], in test [16], in test [17], in test [3], in test [5] and in test [6] was > 100 µM (inactive) each time. In addition, the GI50 in test [7] was > 100 µM (inactive); in test [8], > 100 µM (inactive); in test [9], above 100 µM; in test [18], > 100 µM (inactive); in [10], > 100 µM (inactive); in test [11], > 100 µM (inactive). Also, the GI50 in [12], in [13], in test [19], in test [14] and in [15] was > 100 µM (inactive) in each case.
